# Laboratory results as given in ChEMBL document CHEMBL1151467, “Antimicrobial resistance genes associated with Salmonella enterica serovar newport isolates from food animals” (2008).
# Legend:
# [1] = system: Salmonella enterica subsp. enterica; assay: Antibacterial activity against blaCMY-expressing Salmonella enterica subsp. enterica serovar Newport isolated from food animals; assay type: functional
# [2] = system: Salmonella enterica subsp. enterica; assay: Antibacterial activity against aacC-expressing Salmonella enterica subsp. enterica serovar Newport isolated from food animals; assay type: functional, organism-based
# [3] = system: Salmonella enterica subsp. enterica; assay: Antibacterial activity against susceptible Salmonella enterica subsp. enterica serovar Newport isolated from food animals; assay type: functional, organism-based
Compound,MIC [1] [µg/mL],MIC [2] [µg/mL],MIC [3] [µg/mL]
CO/N=C(\C(=O)N[C@@H]1C(=O)N2C(C(=O)O)=C(CSc3nc(=O)c(O)nn3C)CS[C@H]12)c1csc(N)n1 [CEFTRIAXONE],16,–,–
GENTAMICIN,–,1,< 0.25
